pIC50: −log10 of the molar value.

For the experiment, the target named is Programmed cell death protein 1/Programmed cell death 1 ligand 1 (Homo sapiens, UniProt Q9NZQ7). Description: Inhibition of human PD1/PDL1 protein-protein interaction by HTRF assay. It is filed as protein-complex assay. (Time-resolved FRET reads energy transfer from a long-lived donor to a nearby acceptor.)
Chain of Programmed cell death protein 1/Programmed cell death 1 ligand 1 (Q15116 whole entry): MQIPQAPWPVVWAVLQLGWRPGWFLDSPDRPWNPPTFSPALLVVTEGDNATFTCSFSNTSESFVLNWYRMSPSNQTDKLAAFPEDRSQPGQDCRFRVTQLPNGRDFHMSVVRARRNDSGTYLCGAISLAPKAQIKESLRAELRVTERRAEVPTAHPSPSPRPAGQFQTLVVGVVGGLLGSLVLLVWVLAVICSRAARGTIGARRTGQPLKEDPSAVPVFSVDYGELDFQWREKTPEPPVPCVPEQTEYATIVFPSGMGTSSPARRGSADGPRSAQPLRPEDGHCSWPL
Chain of Programmed cell death protein 1/Programmed cell death 1 ligand 1 (Q9NZQ7 whole entry): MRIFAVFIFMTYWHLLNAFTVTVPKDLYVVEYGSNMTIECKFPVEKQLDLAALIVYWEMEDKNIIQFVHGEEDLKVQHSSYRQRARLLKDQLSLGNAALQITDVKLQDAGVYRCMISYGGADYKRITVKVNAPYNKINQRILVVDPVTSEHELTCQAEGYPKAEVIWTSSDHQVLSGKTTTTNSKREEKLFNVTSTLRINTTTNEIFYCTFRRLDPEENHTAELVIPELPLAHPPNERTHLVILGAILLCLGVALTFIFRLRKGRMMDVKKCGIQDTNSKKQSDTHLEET
On to `Cc1c(COc2cc(OCc3cccc(C#N)c3)c(CN3CC(C)(O)C3)cc2Cl)cccc1-c1ccc2c(c1)OCCO2`, for which the pIC50 (as a rule, the negative decadic logarithm of the IC50, by convention in mol/L) was 7.00 to 8.00. The compound `CC(=O)N1CCN(Cc2ccc(O)c(C(=O)/C=C/c3cccc(-c4ccc5c(c4)OCCO5)c3C)c2)CC1` showed a pIC50 below 4.70. In the case of `Cc1c(COc2cc(OCc3cccc(C#N)c3)c(CN3CC[C@@H](C(=O)O)C3)cc2Cl)cccc1-c1ccccc1` it was 7.00 to 8.00; in that of `Cc1c(COc2cc(OCc3cccc(C#N)c3)c(CN3CCCC[C@@H]3C(=O)O)cc2Cl)cccc1-c1ccncc1`, below 7.00; in that of `Cc1c(COc2cc(OCc3cccc(C#N)c3)c(CN3C[C@@H](O)C[C@H]3C(=O)O)cc2Cl)cccc1-c1cncnc1`, below 7.00. Take `Cc1c(COc2cc(OCc3cccc(C#N)c3)c(CNC(C)(C)C(=O)O)cc2Cl)cccc1-c1cccnc1`: the pIC50 is 7.00 to 8.00.

Take `Cc1c(COc2cc(OCc3cccc(C#N)c3)c(CN3CCN(C(C)C)CC3)cc2Cl)cccc1-c1ccc2c(c1)OCCO2`: the pIC50 is below 6.00.

`Cc1c(COc2cc(OCc3cccc(C#N)c3)c(CN3CCCC[C@H]3C(=O)O)cc2Cl)cccc1-c1cncnc1` gave a pIC50 below 7.00.

Compound `Cc1c(COc2cc(OCc3cccc(C#N)c3)c(CN[C@@H](C(=O)O)[C@H](C)O)cc2Cl)cccc1-c1ccccc1` had a pIC50 of 8.07. Turning to `Cc1c(COc2cc(OCc3cccc(C#N)c3)c(CNC(C)(C)C(=O)O)cc2Cl)cccc1-c1ccc2c(c1)OCCO2`, the pIC50 is 7.60. Compared with the last compound, the pIC50 is 0.47 log units lower. With `CC(=O)NCCNCc1ccc2cc(OCc3cccc(-c4ccccc4)c3C)ccc2c1` the figure was below 5.00; with `Cc1c(COc2cc(OCc3cccc(C#N)c3)c(CN3CC(O)C3)cc2Cl)cccc1-c1ccccc1`, below 7.00. On to `Cc1c(COc2cc(OCc3cccc(C#N)c3)c(CN3CCN(C(=O)OC(C)(C)C)CC3)cc2Cl)cccc1-c1ccc2c(c1)OCCO2`, for which the pIC50 is below 6.00.

`Cc1c(COc2cc(OCc3cccc(C#N)c3)c(CN3CC[C@H](C(=O)O)C3)cc2Cl)cccc1-c1ccccc1` had a pIC50 of 7.00 to 8.00.

In turn, `Cc1c(COc2ccc3cc(CNC(C)(C)C(=O)O)ccc3c2)cccc1-c1ccccc1` showed a pIC50 below 5.00. The compound `Cc1c(COc2cc(OCc3cccc(C#N)c3)c(CNCC(=O)O)cc2Cl)cccc1-c1ccc2c(c1)OCCO2` gave a pIC50 below 7.00. The compound `CC(=O)N1CCN(Cc2ccc3oc(-c4cccc(-c5ccc6c(c5)OCCO6)c4C)cc(=O)c3c2)CC1` showed a pIC50 below 5.00.

For `Cc1c(COc2ccc3cc(CNCCN)ccc3c2)cccc1-c1ccccc1`, the pIC50 was below 5.00. The compound `Cc1c(COc2cc(OCc3cccc(C#N)c3)c(CNCCN(C)C)cc2Cl)cccc1-c1ccccc1` had a pIC50 of 7.00 to 8.00.

`CCN1CCN(Cc2ccc(O)c(C(=O)/C=C/c3cccc(-c4ccccc4)c3C)c2)CC1` gave a pIC50 of 4.84. With `Cc1c(COc2cc(OCc3cccc(C#N)c3)c(CN3C[C@@H](O)C[C@H]3C(=O)O)cc2Cl)cccc1-c1cccnc1` the figure was below 7.00. `CC(=O)N1CCN(Cc2ccc(O)c(C(=O)/C=C/c3cccc(-c4ccccc4)c3F)c2)CC1`: the negative-log IC50 (pIC50) is below 4.70. As to `Cc1c(COc2cc(OCc3cccc(C#N)c3)c(CN3CC(C(=O)O)C3)cc2Cl)cccc1-c1ccc2c(c1)OCCO2`, the pIC50 was 7.84.

With `Cc1c(COc2cc(OCc3cccc(C#N)c3)c(CN3C[C@@H](O)C[C@H]3C(=O)O)cc2Cl)cccc1-c1ccncc1`, the pIC50 is below 7.00. `O=c1cc(-c2ccc(O)cc2)oc2cc(O[C@@H]3O[C@H](CO)[C@@H](O)[C@H](O)[C@H]3O[C@@H]3OC[C@](O)(CO)[C@H]3O)cc(O)c12` [APIIN] had a pIC50 below 4.00. For `Cc1c(/C=C/C(=O)c2cc(CN3CCN(c4cccc([N+](=O)[O-])c4)CC3)ccc2O)cccc1-c1ccc2c(c1)OCCO2`, the pIC50 was 4.71. In turn, `Cc1c(COc2cc(OCc3cccc(C#N)c3)c(CN3CCNCC3)cc2Cl)cccc1-c1ccc2c(c1)OCCO2` had a pIC50 of 6.63.

In turn, `Cc1c(COc2ccc3cc(CNC(C)(C)C(=O)O)ccc3c2)cccc1-c1ccc2c(c1)OCCO2` had a pIC50 below 5.00.

For the compound `CC(=O)N1CCN(Cc2cc(Cl)c(OCc3cccc(-c4ccc5c(c4)OCCO5)c3C)cc2OCc2cccc(C#N)c2)CC1`, the pIC50 was 6.39. `Cc1c(COc2cc(OCc3cccc(C#N)c3)c(CN3CC[C@H](O)C3)cc2Cl)cccc1-c1ccccc1` showed a pIC50 of 7.00 to 8.00. The compound `Cc1c(COc2cc(OCc3cccc(C#N)c3)c(CNCCNC(=O)OC(C)(C)C)cc2Cl)cccc1-c1ccc2c(c1)OCCO2` gave a pIC50 of 7.25.

The compound `Cc1c(COc2ccc3cc(CN4C[C@@H](O)C[C@H]4C(=O)O)ccc3c2)cccc1-c1ccc2c(c1)OCCO2` gave a pIC50 below 5.00. On to `COc1cc2c(c(O)c1CC=C(C)C)C(=O)C[C@@H](c1ccc(O)cc1)O2`, for which the pIC50 is 4.02. In the case of `Cc1c(COc2cc(OCc3cccc(C#N)c3)c(CN[C@H](CO)C(=O)O)cc2Cl)cccc1-c1cccnc1`, the negative-log IC50 (pIC50) is 7.00 to 8.00. The compound `Cc1c(COc2cc(OCc3cccc(C#N)c3)c(CN[C@H](C(=O)O)[C@@H](C)O)cc2Cl)cccc1-c1ccccc1` gave a pIC50 of 8.05. Consider `Cc1c(COc2cc(OCc3cccc(C#N)c3)c(CN[C@@H](CO)C(=O)O)cc2Cl)cccc1-c1ccncc1`, for which the pIC50 was below 7.00. Consider `Cc1c(COc2cc(OCc3cccc(C#N)c3)c(CN[C@H](CO)C(=O)O)cc2Cl)cccc1-c1ccncc1`, for which the pIC50 was below 7.00. Regarding `Cc1c(COc2cc(OCc3cccc(C#N)c3)c(CN3CCCC[C@H]3C(=O)O)cc2Cl)cccc1-c1ccncc1`, the pIC50 is below 7.00. With `CC(=O)N1CCN(Cc2ccc3oc(-c4cccc(-c5ccccc5)c4)cc(=O)c3c2)CC1` the figure was below 5.00. `Cc1c(COc2cc(OCc3cccc(C#N)c3)c(CNCCN(C)C)cc2Cl)cccc1-c1ccc2c(c1)OCCO2` showed a negative-log IC50 (pIC50) of 7.58. `Cc1c(COc2ccc3cc(CN[C@@H](CO)C(=O)O)ccc3c2)cccc1-c1ccc2c(c1)OCCO2` gave a pIC50 below 5.00.

For the compound `CC(=O)N1CCN(Cc2ccc(O)c(C(=O)/C=C/c3cccc(-c4ccccc4)c3)c2)CC1`, the pIC50 is below 4.70.

Compound `Cc1c(COc2cc(OCc3cccc(C#N)c3)c(CN[C@H](C(=O)O)[C@H](C)O)cc2Cl)cccc1-c1ccccc1` had a pIC50 of 7.85. In turn, `Cc1c(COc2cc(OCc3cccc(C#N)c3)c(CN3CCCCC3C(=O)O)cc2Cl)cccc1-c1ccncc1` (configuration not stated) showed a pIC50 below 7.00. With `Cc1c(COc2cc(OCc3cccc(C#N)c3)c(CN[C@@H](C(=O)O)[C@H](C)O)cc2Cl)cccc1-c1ccncc1` the figure was below 7.00; with `Cc1c(COc2cc(OCc3cccc(C#N)c3)c(/C=N/C(CS)C(=O)O)cc2Cl)cccc1-c1ccccc1` (configuration not stated), below 7.00; with `CCN1CCN(Cc2ccc3oc(-c4cccc(-c5ccccc5)c4C)cc(=O)c3c2)CC1`, below 5.00. For the compound `Cc1c(COc2cc(OCc3cccc(C#N)c3)c(CN3CCN(C)CC3)cc2Cl)cccc1-c1ccc2c(c1)OCCO2`, the pIC50 was 6.65. With `Cc1c(COc2cc(OCc3cccc(C#N)c3)c(CN3CC(O)C3)cc2Cl)cccc1-c1ccc2c(c1)OCCO2`, the pIC50 is 7.52.

`CC(=O)N1CCN(Cc2ccc(O)c(C(=O)/C=C/c3cccc(-c4ccccc4)c3C)c2)CC1`: the pIC50 was 4.84. Turning to `Cc1c(COc2cc(OCc3cccc(C#N)c3)c(CN3CCN(CC4CC4)CC3)cc2Cl)cccc1-c1ccc2c(c1)OCCO2`, the pIC50 is below 6.00. Compound `Cc1c(COc2cc(OCc3cccc(C#N)c3)c(CNCC(=O)O)cc2Cl)cccc1-c1ccccc1` showed a negative logarithm of the IC50 (pIC50) of 7.00 to 8.00.
